Measured values from patent US9604923B2 (H. LEE MOFFITT CANCER CENTER AND RESEARCH INSTITUTE, INC., priority 2006, dated 2017).
Read-outs that look alike come from different tables or passages of the source. One block for each compound: values may come before it.

Legend:
STAT3 [1] = target: T1, STAT3 (Mus musculus, UniProt P42227); experiment: Inhibition of STAT3 dimerization, EMSA assay; format: binding; set-up: nuclear extracts were pre-incubated with compound for 30 minutes at room temperature prior to incubation with the radiolabeled probe; endogenous in cells; host or cells: nuclear extracts per the general EMSA method
STAT3 [2] = target: T1, STAT3; experiment: Inhibition of STAT3 dimerization, EMSA assay; format: binding; set-up: endogenous in cells; host or cells: nuclear extracts per the general EMSA method
MDA-MB-453 [3] = experiment: Viable cell number by trypan blue exclusion; format: cell-based, human; conditions: 100 μM, four days
Source text: (§1) […]. Values are the mean and S.D. of 3-4 independent determinations.
(§2) . The present inventors next determined whether this Stat3 activity inhibitor is able to inhibit the anchorage-dependent and -independent (transformation) growth of human and mouse cancer cell lines and whether this inhibition is dependent on the presence of persistently-active Stat3. […]. […]

[4] = tested on: MDA-MB-231, MDA-MB-435 and MDA-MB-468; experiment: Viable cell number by trypan blue exclusion; format: cell-based, human; conditions: 100 μM, four days
Source text: as §1, §2

NIH3T3/v-Src [5] = experiment: Viable cell number by trypan blue exclusion; format: cell-based, mouse; conditions: 100 μM, four days
Source text: as §1, §2

NIH3T3 [6] = experiment: Viable cell number by trypan blue exclusion; format: cell-based, mouse; conditions: 100 μM, four days
Source text: as §1, §2

NIH3T3 [7] = experiment: Apoptosis by Annexin V binding and Flow Cytometry; format: cell-based, mouse
Experimental: (§3) In some cases, cells were first transfected with Stat3C, ST3-NT, or ST3-SH2 domain or mock-transfected for 24 hours prior to treatment with compound for an additional 24-48 hours. Cells were then detached and analyzed by Annexin V binding (BD Biosciences, San Diego) according to the manufacturer's protocol and Flow Cytometry to quantify the percent apoptosis.

[8] = tested on: Stat3-dependent luciferase reporter pLucTKS3; conditions: dose-dependent manner
Stat3 [9] = target: Stat3 (Homo sapiens, UniProt P40763); conditions: 10, 30, and 100 μM pre-incubation
[10] = tested on: Cyclin D1, Bcl-xL and Survivin in NIH3T3/v-Src; experiment: Immunoblot of Stat3-regulated gene products; format: cell-based, mouse; conditions: 100, 48 hours
[11] = tested on: Cyclin D1, Bcl-xL and Survivin in MDA-MB-231; experiment: Immunoblot of Stat3-regulated gene products; format: cell-based, human; conditions: 100, 48 hours
MDA-MB-231 = experiment: Apoptosis by Annexin V binding and Flow Cytometry; format: cell-based, human; conditions: untransfected or mock-transfected cells; 100 μM
Experimental: (§4) […]; Turkson, J. et al. Mol. Cell.
as §3
[…]. To this end, the breast carcinoma MDA-MB-231 cells that harbor activated Stat3 were transiently transfected with Stat3C and evaluated for apoptosis. […] […]. There is increased in the background level of cell death, which could be due to the effects of transfection. […].

NIH3T3/v-Src [12] = experiment: Apoptosis by Annexin V binding and Flow Cytometry; format: cell-based, mouse
Experimental: . In FIG. 4B, human breast carcinoma MDA-MB-231 cells were transfected with pcDNA3 (mock), Stat3C or untransfected (Non), or the v-Src transformed mouse fibroblasts (NIH3T3/v-Src) were transfected with pcDNA3 (mock), N-terminus of Stat3 (ST3-NT) or the Stat3 SH2 domain (ST3-SH2) for […]. […]. Values are the mean and S.D. of six independent determinations. Western blot data are representative of 3 independent analyses.
as §3

Stat5:5 = experiment: STATs DNA-binding activity in vitro, EMSA with MGFe probe; set-up: species or system mouse
[13] = tested on: constitutively-active Stat3 in MDA-MB-231, MDA-MB-435 and MDA-MB-468 cells; conditions: 100 μM; by 24 hours in text, 48 hours in FIG. 2E legend
[14] = target: FLAG-ST3:Stat3-YFP complex (Homo sapiens, UniProt P40763); conditions: NIH3T3/v-Src, 24 hours
NIH3T3/v-Src [15] = experiment: Soft-agar colony formation assay; format: cell-based, mouse; conditions: 100 μM every 3 days
Experimental: (§5) Briefly, each well contained 1.5 ml of 1% agarose in Dulbeco's modified Eagle's medium as the bottom layer and 1.5 ml of 0.5% agarose in Dulbeco's modified Eagle's medium containing 4000 or 6000 NIH3T3/v-Src or NIH3T3/v-Ras fibroblasts, respectively, as the top layer. […]. Colonies were quantified by staining with 20 μl of 1 mg/ml iodonitrotetrazolium violet, incubating at 37° C. overnight, and counting the next day.

NIH3T3/v-Ras = experiment: Soft-agar colony formation assay; format: cell-based, mouse; conditions: 100 μM every 3 days
Experimental: as §5

[16] = tested on: constitutively-active Stat3 in NIH3T3/v-Src fibroblasts; conditions: 100 μM, by 24 hours
[17] = tested on: β-Casein promoter-driven Luc; experiment: Luciferase reporter assay, v-Src co-transfected NIH3T3; format: cell-based, mouse; conditions: 100 μM, 24 hours
Source text: as §4
[…]. […] […].

[18] = tested on: Stat3-independent luciferase reporter pLucSRE; conditions: 100 μM, 24 hours
[19] = tested on: human breast (MDA-MB-231) tumor; experiment: Human breast tumor xenografts in athymic nude mice; format: in vivo, mouse
[20] = tested on: pTyr705 Stat3 in NIH3T3/v-Src fibroblasts; conditions: 100 μM, 24-hour treatment
[21] = tested on: pShc, pErk1/2, pSrc, pTyr profile in NIH3T3/v-Src or EGF-stimulated NIH3T3/hEGFR; experiment: Western blot for other signaling proteins; format: cell-based, mouse
MDA-MB-435 = experiment: Apoptosis by Annexin V binding and Flow Cytometry; format: cell-based, human
Experimental: as §3

MDA-MB-453 [22] = experiment: Apoptosis by Annexin V binding and Flow Cytometry; format: cell-based, human; conditions: 100 μM or less, 48 hours
Experimental: as §3

T1 sequence (P42227 2-770 limits assumed): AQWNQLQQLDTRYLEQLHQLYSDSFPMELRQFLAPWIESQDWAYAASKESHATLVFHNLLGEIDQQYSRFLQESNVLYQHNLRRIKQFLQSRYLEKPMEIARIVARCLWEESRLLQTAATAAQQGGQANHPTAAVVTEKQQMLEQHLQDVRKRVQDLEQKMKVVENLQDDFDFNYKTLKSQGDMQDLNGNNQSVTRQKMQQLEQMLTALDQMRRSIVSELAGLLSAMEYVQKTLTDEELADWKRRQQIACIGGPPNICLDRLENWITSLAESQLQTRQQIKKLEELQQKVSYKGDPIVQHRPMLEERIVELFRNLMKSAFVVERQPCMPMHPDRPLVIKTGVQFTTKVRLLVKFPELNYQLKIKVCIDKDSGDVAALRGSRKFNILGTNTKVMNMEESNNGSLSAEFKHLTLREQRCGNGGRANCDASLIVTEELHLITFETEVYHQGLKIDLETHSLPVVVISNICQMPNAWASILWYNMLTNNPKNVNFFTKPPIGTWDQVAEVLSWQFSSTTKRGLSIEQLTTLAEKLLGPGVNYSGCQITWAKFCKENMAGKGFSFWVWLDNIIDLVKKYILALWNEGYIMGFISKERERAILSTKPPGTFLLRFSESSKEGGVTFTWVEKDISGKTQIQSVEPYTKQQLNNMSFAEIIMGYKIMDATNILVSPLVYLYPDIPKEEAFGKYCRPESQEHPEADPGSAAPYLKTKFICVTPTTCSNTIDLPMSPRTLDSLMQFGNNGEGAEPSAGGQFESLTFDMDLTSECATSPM
FLAG-ST3:Stat3-YFP complex, sequence (P40763 whole entry, one chain of several): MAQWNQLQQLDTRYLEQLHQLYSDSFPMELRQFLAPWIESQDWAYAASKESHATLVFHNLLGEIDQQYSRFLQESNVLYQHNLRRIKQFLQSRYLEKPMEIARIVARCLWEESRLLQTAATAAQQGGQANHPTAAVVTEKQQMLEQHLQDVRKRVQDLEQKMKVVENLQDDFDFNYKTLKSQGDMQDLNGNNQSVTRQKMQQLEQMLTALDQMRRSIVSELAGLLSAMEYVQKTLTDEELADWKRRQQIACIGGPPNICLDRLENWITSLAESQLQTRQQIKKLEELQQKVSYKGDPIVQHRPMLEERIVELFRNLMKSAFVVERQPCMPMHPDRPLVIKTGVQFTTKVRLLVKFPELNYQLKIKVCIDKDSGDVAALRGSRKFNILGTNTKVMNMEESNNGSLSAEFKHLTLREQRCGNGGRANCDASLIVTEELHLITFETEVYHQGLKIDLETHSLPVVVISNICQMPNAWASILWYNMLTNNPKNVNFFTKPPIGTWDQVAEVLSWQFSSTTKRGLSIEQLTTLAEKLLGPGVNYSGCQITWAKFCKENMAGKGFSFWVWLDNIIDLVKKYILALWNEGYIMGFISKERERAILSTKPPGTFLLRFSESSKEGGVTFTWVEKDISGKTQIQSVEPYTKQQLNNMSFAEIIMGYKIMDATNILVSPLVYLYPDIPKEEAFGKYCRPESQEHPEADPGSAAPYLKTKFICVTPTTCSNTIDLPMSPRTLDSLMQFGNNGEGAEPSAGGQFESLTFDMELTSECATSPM
Stat3, sequence (P40763 2-770 limits assumed): as the sequence (P42227 2-770 limits assumed) above, with D759E counted along it

Compound: O=C(COS(=O)(=O)c1ccc(-c2ccccc2)cc1)Nc1ccc(C(=O)O)c(O)c1 [Compound 19]
IC50 (STAT3 [1]): > 500 µM

Compound: O=C(CNS(=O)(=O)c1ccc(-c2ccccc2)cc1)Nc1ccc(C(=O)O)c(O)c1 [Compound 21]
IC50 (STAT3 [1]): > 500 µM

Compound: O=C(CC(CNS(=O)(=O)c1ccc(Oc2ccccc2)cc1)c1ccc2ccccc2c1)Nc1ccc(C(=O)O)c(O)c1 (centres unmarked) [Compound 65, 2-hydroxy-4-(3-(naphthalen-2-yl)-4-(4-phenoxyphenylsulfonamido)butanamido)benzoic acid]
IC50 (STAT3 [2]): > 500 µM
melting point: 153 to 155 °C

Compound: CCOC(=O)c1ccc(NC(=O)CCc2ccccc2)cc1 [Compound 70, Ethyl 4-(3-phenylpropanamido)benzoate]
IC50 (STAT3 [2]): > 500 µM
melting point: 109 to 111 °C

Compound: O=C(CCc1ccc2ccccc2c1)Nc1ccc(C(=O)O)cc1 [Compound 71, 4-(3-(Naphthalen-2-yl)propanamido)benzoic acid]
IC50 (STAT3 [2]): > 500 µM
melting point: 255 to 257 °C

Compound: Cc1ccc(S(=O)(=O)OCC(=O)Nc2ccc(C(=O)O)c(O)c2)cc1 [Compound S3I-201, 2-Hydroxy-4-(2-(tosyloxy)acetamido)benzoic acid]
growth and viability (MDA-MB-453 [3]): not significantly altered
viable cell numbers and growth [4]: significantly reduced viable cell numbers and inhibited growth
viable cell numbers and growth (NIH3T3/v-Src [5]): significantly reduced viable cell numbers and inhibited growth
growth and viability (NIH3T3 [6]): not significantly altered
sensitivity to apoptosis induction (NIH3T3 [7]; 100 μM or less, 48 hours): less sensitive
cytotoxicity (NIH3T3 [7]; 300 μM or higher, independent of Stat3 activation status): general, non-specific cytotoxicity
v-Src-mediated pLucTKS3 induction [8]: significantly inhibited
Stat3 activity in control tumor tissue lysates (Stat3 [9]): dose-dependent abrogation
expression of the Cyclin D1, Bcl-xL and Survivin proteins [10]: significant reduction in expression
expression of the Cyclin D1, Bcl-xL and Survivin proteins [11]: significant reduction in expression
apoptosis (MDA-MB-231): 50-80%
apoptosis (NIH3T3/v-Src [12]; 30-100, 48 hours): significant apoptosis
apoptosis (NIH3T3/v-Src [12]; cells overexpressing the ST3-NT region): strong induction of apoptosis
apoptosis (NIH3T3/v-Src [12]; mock-transfected cells): strongly induced
apoptosis (NIH3T3/v-Src [12]; overexpression of the Stat3-SH2 domain): diminished the apoptotic effects
preference for Stat3 over Stat5 (less potency for Stat5) (Stat5:5; DNA-binding activity): 2 fold
IC50 (Stat5:5; Table 4, listed as 74859, read-out: IC50 values for the inhibition of STATs DNA-binding activity in vitro, Stat5:5): 166 µM
constitutive Stat3 activation [13]: significantly inhibited
FLAG-ST3 protein in the Stat3-YFP immunoprecipitates [14]: no detectable level
Stat3-YFP in the FLAG-ST3 immunoprecipitates [14]: significantly reduced
growth in soft-agar suspension (NIH3T3/v-Src [15]): significantly inhibited
soft-agar growth (NIH3T3/v-Ras): unaffected
constitutive Stat3 activation [16]: significantly inhibited
v-Src-mediated induction of β-Casein promoter Luc [17]: not affected
v-Src-mediated induction of pLucSRE [18]: not affected
tumor growth compared to control (vehicle-treated) tumors ([19]; 5 mg/kg i.v. every 2 or every 3 days for two weeks): strong growth inhibition
tumor growth upon termination of treatment ([19]; data not shown): no resumption of tumor growth
total Stat3 protein in residual tumor tissue ([19]; treated mice T1 and T2): remained unchanged
pTyr Stat3 (pYStat3) in residual tumor tissue ([19]; treated mice T1 and T2 compared to control): minimal to no detection
Stat3 DNA binding activity in residual tumor tissue (EMSA) ([19]; treated mice T1 and T2 compared to control tumor): strong inhibition
pTyr705 Stat3 levels [20]: significantly diminished
total Stat3 protein level [20]: remained unchanged
phosphorylation of Shc (pShc), Erk1/2 (pErk1/2), or Src (pSrc) ([21]; 100 μM, 24 hours): no significant effect
total Erk1/2 protein levels ([21]; 24 hours): unchanged
pTyr profile, anti-pTyr antibody 4G10 clone ([21]; NIH3T3/v-Src, 24-hour treatment): no significant changes
sensitivity to apoptosis induction (MDA-MB-435; 30 μM): more sensitive
apoptosis (MDA-MB-435; 30-100, 48 hours): significant apoptosis
sensitivity to apoptosis induction (MDA-MB-453 [22]): less sensitive

The remaining lines, values ahead:

IC50 (STAT3 [1]): > 500 µM
Compound: CCOC(=O)c1ccc(NC(=O)CC(CNS(=O)(=O)c2ccc(Oc3ccccc3)cc2)c2ccc(Cl)cc2)cc1 (centres unmarked) [Compound 37]

melting point: 187 to 189 °C
Compound: CCOC(=O)c1ccc(NC(=O)CC(CNS(=O)(=O)c2ccc(C)cc2)c2ccc(Cl)cc2)cc1 (centres unmarked) [Compound 38, Ethyl 4-(3-(4-chlorophenyl)-4-(4-methylphenylsulfonamido)butanamido)benzoate]

melting point: 147 to 149 °C
Compound: CCOC(=O)c1ccc(NC(=O)CC(CNS(=O)(=O)c2ccc(Oc3ccccc3)cc2)c2ccccc2)cc1 (centres unmarked) [Compound 56, Ethyl 4-(4-(4-phenoxyphenylsulfonamido)-3-phenylbutanamido)benzoate]

melting point: 141 to 143 °C
Compound: CCOC(=O)c1ccc(NC(=O)CC(CNS(=O)(=O)c2ccc(Oc3ccccc3)cc2)c2ccc3ccccc3c2)cc1 (centres unmarked) [Compound 58, Ethyl 4-(3-(naphthalen-2-yl)-4-(4-phenoxyphenylsulfonamido)butanamido)benzoate]

IC50 (STAT3 [2]): > 500 µM
melting point: 187 to 189 °C
Compound: O=C(CC(CNS(=O)(=O)c1ccc(Oc2ccccc2)cc1)c1ccccc1)Nc1ccc(C(=O)O)cc1 (centres unmarked) [Compound 60, 4-(4-(4-phenoxyphenylsulfonamido)-3-phenylbutanamido)benzoic acid]

melting point: 183 to 184 °C
Compound: O=C(CC(CNS(=O)(=O)c1ccc(Oc2ccccc2)cc1)c1ccc2ccccc2c1)Nc1ccc(C(=O)O)cc1 (centres unmarked) [Compound 61, 4-(3-(naphthalen-2-yl)-4-(4-phenoxyphenylsulfonamido)butanamido)benzoic acid]
